Where two headings read alike, the source gives them in different places.
Key:
[1] = test system: MRC-5 human lung fibroblast cell line; test: MTT cytotoxicity assay in MRC-5; assay type: cell-based; conditions: Homo sapiens, MRC5, 72 h incubation
Experimental: (§1) The in vitro cytotoxic activity of the novel water-soluble amino acid derivatives of HQCl and their RhCp* and RuCym complexes was measured by the thiazolyl blue tetrazolium bromide (MTT) assay in two human colon adenocarcinoma cell lines (Colo-205 and Colo-320) and in one non-tumoral human lung fibroblast cell line (MRC-5). The results are given in terms of IC50 values (Table 1). Colo-205 is a drug-sensitive cell line with a normal ABCB1 transporter expression pattern, while Colo-320 is multidrug-resistant and overexpresses the ABCB1 system.
(§2) All cell culture reagents were obtained from Sigma-Aldrich and plasticware from Sarstedt (Nümbrecht, Germany). Human colonic Colo-205 doxorubicin-sensitive and Colo-320/MDR-LRP multidrug-resistant adenocarcinoma and MRC-5 human embryonal lung fibroblast cell lines were purchased from LGC Promochem, Teddington, UK. The colonic adenocarcinoma cells were cultured in Roswell Park Memorial Institute (RPMI) 1640 medium supplemented with 10% heat-inactivated fetal bovine serum, 2 mM L-glutamine, 1 mM sodium pyruvate and […]. The MRC-5 cell line was cultured in Eagle’s Minimal Essential Medium (EMEM, Sigma-Aldrich, St. Louis, MO, USA) supplemented with a non-essential amino acid (NEAA) mixture (Sigma-Aldrich, St. Louis, MO, USA) a selection of vitamins, 10% heat-inactivated foetal bovine serum (FBS), 2 mM L-glutamine (Sigma-Aldrich, St. Louis, MO, USA), 1 mM Na-pyruvate (Sigma-Aldrich, St. Louis, MO, USA), nystatin (Sigma-Aldrich, St. Louis, MO, USA) and a penicillin-streptomycin mixture (Sigma-Aldrich, St. Louis, MO, USA) in con-centrations of 100 U/L and 10 mg/L, respectively. The cells were incubated at 37 °C, in a 5% CO2, 95% air atmosphere. All cell lines were detached with Trypsin-Versene (EDTA) solution for 5 min at 37 °C.
(§3) The tested compounds were dissolved in 10% (v/v) DMSO/H2O using 4 mM concentration. Doxorubicin (Merck, Darmstadt, Germany) was used as a positive control. Then stock solutions were diluted in complete culture medium, and two-fold serial dilutions of compounds were prepared in 100 μL of the medium, horizontally. The semi-adherent colonic adenocarcinoma cells were treated with Trypsin-Versene (EDTA) solution. They were adjusted to a density of 1 × 10^4 cells in 100 μL of RPMI 1640 or EMEM medium and were added to each well, with the exception of the medium control wells. The final volume of the wells containing compounds and cells was 200 μL. The plates containing Colo-205, Colo-320 or MRC-5 cells were incubated at 37 °C for 72 h; at the end of the incubation period, 20 μL of MTT solution (from a stock solution of 5 mg/mL) were added to each well. After incubation at 37 °C for 4 h, 100 μL of SDS solution (10% in 0.01 M HCI) were added to each well, and the plates were further incubated at 37 °C overnight. […] The IC50 values were obtained from at least 3 independent experiments.

[2] = Distribution coefficients, shake-flask n-octanol/buffered aqueous solution; assay type: physicochemical; conditions: pH 7.4, n-octanol/buffer, in 100 mM KCl, read-out: logD7.4
Experimental: It is worth noting that these amino acid hybrids have excellent water solubility due to their zwitterionic form, unlike most 8-hydroxyquinolines.
Distribution coefficients of the ligands as well as of the complexes were determined at pH = 7.4 using the traditional shake-flask method in n-octanol/buffered aqueous solution (20 mM phosphate) at different chloride ion concentrations (4, 24 and 100 mM) using UV-vis spectrophotometry for the analysis. The measurement and data evaluation were performed as described in our former work.

[3] = Proton dissociation constants of the ligands (pH-potentiometry, UV-vis, 1H NMR titrations); assay type: physicochemical; conditions: for pKa: aqueous solution, I = 0.2 M KNO3, T = 25.0 °C
Experimental: pH-potentiometric measurements were carried out at 25.0 ± 0.1 °C in water in the pH range between 2.0 and 11.5 and at a constant ionic strength of 0.2 M KNO3. The titrations were performed in a carbonate-free KOH solution (0.20 M). The exact concentrations of HNO3 and KOH solutions were determined by pH-potentiometric titrations. An Orion 710A pH-meter equipped with a Metrohm combined electrode (type 6.0234.100) and a Metrohm 665 Dosimat burette were used for the pH-potentiometric measurements. […] The average water ionization constant, pKw, was determined as 13.76 ± 0.01, which is in good agreement with the literature data. The initial volume of the samples was 5.0 mL. The ligand concentration was 1.75 or 2.0 mM. Samples were degassed by bubbling purified argon through them for about 10 min prior to the measurements, and the inert gas was also passed over the solutions during the titrations. The computer program Hyperquad2013 [46] was utilized to establish the stoichiometry of the species and to calculate the equilibrium constants, similarly to that performed in our previous works.
Agilent Cary 8454 diode array spectrophotometer was utilized to obtain UV-vis spectra in the wavelength range 190–1100 nm. The path length (ℓ) was 1 cm in most cases (the actual ℓ is always indicated in the legends of the figures). The concentrations of the ligands and complexes were between 88 and 240 µM. For HSA and ct-DNA containing samples, complex concentrations were 100 µM, and 0.5 and 2 equiv. biomolecule were added for kinetic studies, respectively. Individual samples contained 0–20 µM HSA and 0–1.75 mM (nucleotide) ct-DNA. Spectra were always background corrected. The computer program HypSpec was used to obtain stability constants.
Bruker Avance III HD Ascend 500 Plus instrument (Billerica, MA, USA) was used for NMR studies. ^1H NMR spectroscopic measurements were carried out with a WATERGATE water suppression pulse scheme in the presence of 10% (v/v) D2O in most cases. DSS internal standard was added to samples to obtain reference peaks. Complex concentrations were 0.5 mM or 1.0 mM, and 0.5 equiv. HSA was added. ^1H NMR titrations were carried out in the presence of 0.2 M KNO3. With the FHA model peptide, the measurements were performed at 0.5 or 1 mM metal complex concentrations, and 1:1, 1:2 or 2:1 peptide-to-metal complex ratios were applied. The computer program HypSpec was used to obtain stability constants.

[4] = design: method as in PMID 32500882; conditions: cited from earlier work
[5] = test system: Colo-205 human colon adenocarcinoma cell line (doxorubicin-sensitive); design: method as in PMID 32500882; conditions: cited from earlier work
[6] = test system: Colo-320 human colon adenocarcinoma cell line (multidrug-resistant); design: method as in PMID 32500882; conditions: cited from earlier work
Colo-205 cells = test: Annexin V-FITC / propidium iodide apoptosis induction assay, flow cytometry; assay type: cell-based, human; conditions: 3 h induction
Source text: 12H-Benzo[α]phenothiazine (M627) and cisplatin were used as positive controls. Annexin-V assay offers the possibility of detecting early phases of apoptosis. Apoptosis is a morphologically and biochemically distinct form of programmed cell death, which is the preferred mode of action for an anticancer compound. PI was used to distinguish between viable, early apoptotic and necrotic or late apoptotic cells. […] In order to better understand the different behavior of the studied compounds, an in-depth analysis of the various solution (physico-)chemical properties of the ligands and complexes were performed.
The assay was carried out using an Annexin V-FITC Apoptosis Detection Kit from Sigma-Aldrich according to the manufacturer’s instructions. The concentration of the Colo-205 cell suspension was adjusted to approximately 0.5 × 10^6 cells per mL in RPMI 1640 medium, and the cell suspension was distributed in 1 mL aliquots into a 24-well plate and then incubated overnight at 37 °C and 5% CO2. The next day, the medium was removed and replaced by 1 mL RPMI 1640 medium containing the compounds except for the control samples. […] After the incubation period, the samples were washed with PBS, and a fresh medium was added to the samples. The cells were incubated overnight at 37 °C and 5% CO2. The next day, 200 μL 0.25% Trypsin (Trypsin-Versen) was added to the samples until cells appeared detached, followed by the addition of 400 μL of medium supplemented with 10% bovine serum. The cells were collected in Eppendorf tubes and centrifuged at 2000× g for 2 min. The harvested cells were re-suspended in a fresh serum-free RPMI 1640 culture medium. After this step, the apoptosis assay was carried out according to the protocol of the kit. The fluorescence was analyzed immediately using a ParTec CyFlow flow cytometer (Partec GmbH, Münster, Germany).

[7] = molecular target: T1, HSA site II (subdomain IIIA) (Homo sapiens, UniProt P02768); design: method as in PMID 34374386; conditions: cited from earlier work
T1 construct: purchased Sigma-Aldrich A8763

[8] = design: method as in PMID 32500882; conditions: cited from earlier work; remark: listed apart in the source
[9] = molecular target: T2, HSA site I (subdomain IIA) (Homo sapiens, UniProt P02768); design: method as in PMID 34374386; conditions: cited from earlier work
T2 construct: purchased Sigma-Aldrich A8763

Ac-Phe–His–Ala-NH2 (FHA) = test system: Ac-Phe–His–Ala-NH2 (FHA); design: method as in PMID 34374386; conditions: cited from earlier work
Ac-Ala–His–Ala-NH2 (AHA) = test system: Ac-Ala–His–Ala-NH2 (AHA); design: method as in PMID 34374386; conditions: cited from earlier work
[10] = test system: Colo-320 human colon adenocarcinoma cell line (multidrug-resistant); test: MTT cytotoxicity assay in Colo-320; assay type: cell-based; conditions: Homo sapiens, COLO 320, 72 h incubation
Experimental: as §1, §2, §3

[11] = test system: Colo-205 human colon adenocarcinoma cell line (doxorubicin-sensitive); test: MTT cytotoxicity assay in Colo-205; assay type: cell-based; conditions: Homo sapiens, COLO 205, 72 h incubation
Experimental: as §1, §2, §3

T1 sequence (P02768 25-609): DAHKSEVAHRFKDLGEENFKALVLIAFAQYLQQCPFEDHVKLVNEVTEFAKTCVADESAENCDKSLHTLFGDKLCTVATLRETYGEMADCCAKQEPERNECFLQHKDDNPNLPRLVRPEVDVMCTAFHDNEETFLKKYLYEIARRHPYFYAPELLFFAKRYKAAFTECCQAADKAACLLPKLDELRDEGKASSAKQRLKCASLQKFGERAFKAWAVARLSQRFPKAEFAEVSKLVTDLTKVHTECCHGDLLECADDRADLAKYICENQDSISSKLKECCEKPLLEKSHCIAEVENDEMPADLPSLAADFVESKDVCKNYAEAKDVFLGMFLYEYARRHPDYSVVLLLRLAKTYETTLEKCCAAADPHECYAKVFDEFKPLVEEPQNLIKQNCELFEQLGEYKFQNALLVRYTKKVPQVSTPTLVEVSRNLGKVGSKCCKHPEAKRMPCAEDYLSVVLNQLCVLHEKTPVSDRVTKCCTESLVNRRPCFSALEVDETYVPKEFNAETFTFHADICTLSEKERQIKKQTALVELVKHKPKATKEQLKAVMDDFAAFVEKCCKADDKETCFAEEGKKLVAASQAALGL
T2 sequence (P02768 25-609): as above

O=C(O)[C@H]1CCCN1Cc1cc(Cl)c2cccnc2c1O [HQCl-D-Pro, (R)-5-chloro-7-((proline-1-yl)methyl)8-hydroxyquinoline]
IC50 [1]: 5.33 ± 0.44 µM
logD [2]: -0.02 ± 0.01
pKa ([3]; 1H NMR, read-out: pKa (NhPro/ProH+)): > 11
pKa ([3]; 1H NMR, read-out: pKa (NqH+)): 2.32 ± 0.03
pKa ([3]; 1H NMR, read-out: pKa (OH)): 7.75 ± 0.02
pKa ([3]; UV-vis, read-out: pKa (NhPro/ProH+)): > 11
pKa ([3]; UV-vis, read-out: pKa (NqH+)): 2.13 ± 0.03
pKa ([3]; UV-vis, read-out: pKa (OH)): 7.77 ± 0.04
pKa ([3]; pH-potentiometry, read-out: pKa (NhPro/ProH+)): > 11
pKa ([3]; pH-potentiometry, read-out: pKa (NqH+)): < 2
pKa ([3]; pH-potentiometry, read-out: pKa (OH)): 7.71 ± 0.06
fraction of the negatively charged species (O−, COO−, NhPro/ProH+) ([3]; at pH 7.4): 30%

O=C(O)[C@@H]1CCCN1Cc1cc(Cl)c2cccnc2c1O [HQCl-L-Pro, (S)-5-chloro-7-((proline-1-yl)methyl)8-hydroxyquinoline]
IC50 [1]: 4.57 ± 0.21 µM
pKa (NH+Pro) [4]: > 11.5
pKa (NqH+) [4]: 2.36
pKa (OH) [4]: 7.76
IC50 [5]: 23.4 µM
IC50 [6]: 8.5 µM

c1ccc2c(c1)Nc1c(ccc3ccccc13)S2 [M627, 12H-Benzo[α]phenothiazine, reference compound]
cell death, gated events (Colo-205 cells; 10 μM): 15.2%
early apoptosis, gated events (Colo-205 cells; 10 μM): 5.27%
late apoptosis and necrosis, gated events (Colo-205 cells; 10 μM): 16.8%
cell death (Q1), gated events (Colo-205 cells; 20 μM): 20.9%
early apoptosis (Q3), gated events (Colo-205 cells; 20 μM): 21.7%
late apoptosis and necrosis (Q2), gated events (Colo-205 cells; 20 μM): 36.2%

Cc1c(C)c(C)[c-](C)c1C.O=C(O)[C@@H]1CCC[NH+]1Cc1cc(Cl)c2cccnc2c1[O-].[Cl-].[Cl-].[Rh+3] [RhCp*–HQCl-L-Pro, [RhCp*(HQCl-L-Pro)Cl]Cl]
DG Displacement logKDG′, Site II [7]: 5.6
stability constant logK of the RhCp* complex [8]: 13.41
Trp-214 Quenching logKQ′, Site I [9]: 5.5
FHA logKFHA′ (Ac-Phe–His–Ala-NH2 (FHA)): 4.7
reaction time with the tripeptides (Ac-Phe–His–Ala-NH2 (FHA)): few seconds
logK′ (AHA) (Ac-Ala–His–Ala-NH2 (AHA)): 4.2

Cc1ccc(C(C)C)cc1.O=C(O)[C@@H]1CCC[NH+]1Cc1cc(Cl)c2cccnc2c1[O-].[Cl-].[Cl-].[Ru+2] [RuCym–HQCl-L-Pro, [RuCym(HQCl-L-Pro)Cl]Cl]
DG Displacement logKDG′, Site II [7]: 6.1
Trp-214 Quenching logKQ′, Site I [9]: 5.7
FHA logKFHA′ (Ac-Phe–His–Ala-NH2 (FHA)): 5.1
reaction time with the tripeptides (Ac-Phe–His–Ala-NH2 (FHA)): 3 h
logK′ (AHA) (Ac-Ala–His–Ala-NH2 (AHA)): 4.4

N.N.[Cl][Pt][Cl] [cisplatin, reference compound]
cell death, gated events (Colo-205 cells; 15 μM): 3.18%
early apoptosis, gated events (Colo-205 cells; 15 μM): 1.06%
late apoptosis and necrosis, gated events (Colo-205 cells; 15 μM): 4.70%

COc1cccc2c1C(=O)c1c(O)c3c(c(O)c1C2=O)C[C@@](O)(C(=O)CO)C[C@@H]3O[C@H]1C[C@H](N)[C@H](O)[C@H](C)O1 [doxorubicin, reference compound]
IC50 [1]: 0.82 ± 0.16 µM
IC50 [10]: 0.19 ± 0.02 µM
IC50 [11]: 0.05 ± 0.01 µM
